Data taken from patent US7125990B2, “Imidazolyl derivatives as corticotropin releasing factor inhibitors” (Bristol-Myers Squibb COmpany, priority 2001, dated 2006).

Molecular target: T1, CRF1 receptors (Homo sapiens, UniProt P34998)
T1 construct: endogenous in cells; host or cells: IMR-32 cells, transformed with 2.5 µM 5'-bromo-2'-deoxyuridine for 10 days; membrane preparation
T1 sequence (P34998 24-415): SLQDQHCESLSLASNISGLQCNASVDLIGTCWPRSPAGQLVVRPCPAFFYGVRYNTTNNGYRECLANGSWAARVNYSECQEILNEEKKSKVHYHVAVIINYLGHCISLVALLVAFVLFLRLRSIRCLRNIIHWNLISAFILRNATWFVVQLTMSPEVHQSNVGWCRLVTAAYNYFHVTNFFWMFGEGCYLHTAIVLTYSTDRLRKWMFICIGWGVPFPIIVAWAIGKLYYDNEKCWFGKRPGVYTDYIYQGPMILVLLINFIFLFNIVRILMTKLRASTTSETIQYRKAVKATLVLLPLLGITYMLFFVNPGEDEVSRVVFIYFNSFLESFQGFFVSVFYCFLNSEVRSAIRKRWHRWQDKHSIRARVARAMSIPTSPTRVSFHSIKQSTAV
Test: CRF1 receptor radioligand binding assay ([125I]-oCRF competition, IMR-32 cell membranes)
Settings: IMR-32 cell membranes, [125I]-oCRF 100 pM; read-out: Ki (CRF-1R)
Method in brief: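 Buffer: Tris pH 7.2 with MgCl2, BSA, Triton X-100, aprotinin, leupeptin; reaction stopped with ice-cold wash and filtered. Nonspecific binding set with 10 μM oCRF.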

| Ki | Structure (SMILES) |
| --- | --- |
| < 1000 nM | CCN(CCc1ccccc1)Cc1c(C(F)(F)F)nc2n(-c3c(C)cc(C)cc3C)c3ncccc3n12 [Example 218, Ethyl-phenethyl-[2-trifluoromethyl-8-(2,4,6-trimethyl-phenyl)-8H-1,3a,7,8-tetraaza-cyclopenta[α]inden-3-ylmethyl]-amine] |
| < 1000 nM | C=CCN(CCC)Cc1c(C(F)(F)F)nc2n(-c3c(C)cc(C)cc3C)c3ncccc3n12 [Example 220, Allyl-propyl-[2-trifluoromethyl-8-(2,4,6-trimethyl-phenyl)-8H-1,3a,7,8-tetraaza-cyclopenta[α]inden-3-ylmethyl]-amine] |
| < 1000 nM | CCCN(Cc1c(C(F)(F)F)nc2n(-c3c(C)cc(C)cc3C)c3ncccc3n12)CC(F)(F)C(F)(F)F [Example 224, (2,2,3,3,3-Pentafluoro-propyl)-propyl-[2-trifluoromethyl-8-(2,4,6-trimethyl-phenyl)-8H-1,3a,7,8-tetraaza-cyclopenta[α]inden-3-ylmethyl]-amine] |
| < 1000 nM | CCN(CCC1CC1)Cc1c(C(F)(F)F)nc2n(-c3c(C)cc(C)cc3C)c3ncccc3n12 [Example 229, (2-Cyclopropyl-ethyl)-ethyl-[2-trifluoromethyl-8-(2,4,6-trimethyl-phenyl)-8H-1,3a,7,8-tetraaza-cyclopenta[α]inden-3-ylmethyl]-amine] |
| < 1000 nM | CCCCN(CC)Cc1c(C(F)(F)F)nc2n(-c3c(C)cc(C)cc3C)c3ncccc3n12 [Example 231, Butyl-ethyl-[2-trifluoromethyl-8-(2,4,6-trimethyl-phenyl)-8H-1,3a,7,8-tetraaza-cyclopenta[α]inden-3-ylmethyl]-amine] |
| < 10000 nM | CCN(Cc1ccccc1)Cc1c(C(F)(F)F)nc2n(-c3c(C)cc(C)cc3C)c3ncccc3n12 [Example 233, Benzyl-ethyl-[2-trifluoromethyl-8-(2,4,6-trimethyl-phenyl)-8H-1,3a,7,8-tetraaza-cyclopenta[α]inden-3-ylmethyl]-amine] |
| < 10000 nM | Cc1cc(C)c(-n2c3ncccc3n3c(CN(CCc4ccccc4)CC(F)(F)F)c(C(F)(F)F)nc23)c(C)c1 [Example 234, Phenethyl-(2,2,2-trifluoro-ethyl)-[2-trifluoromethyl-8-(2,4,6-trimethyl-phenyl)-8H-1,3a,7,8-tetraaza-cyclopenta[α]inden-3-ylmethyl]-amine] |
| < 100 nM | CCc1nc2n(-c3c(C)cc(C)cc3C)c3ncccc3n2c1CN(CC1CC1)CC1CC1 [Example 246, Bis-cyclopropylmethyl-[2-ethyl-8-(2,4,6-trimethyl-phenyl)-8H-1,3a,7,8-tetraaza-cyclopenta[α]inden-3-ylmethyl]-amine] |
| < 100 nM | CCCN(Cc1c(CC)nc2n(-c3c(C)cc(C)cc3C)c3ncccc3n12)CC1CC1 [Example 247, Cyclopropylmethyl-[2-ethyl-8-(2,4,6-trimethyl-phenyl)-8H-1,3a,7,8-tetraaza-cyclopenta[α]inden-3-ylmethyl]-propyl-amine] |
| < 100 nM | CCc1nc2n(-c3c(C)cc(C)cc3C)c3ncccc3n2c1CN(CC)CCc1ccccc1 [Example 248, Ethyl-[2-ethyl-8-(2,4,6-trimethyl-phenyl)-8H-1,3a,7,8-tetraaza-cyclopenta[α]inden-3-ylmethyl]-phenethyl-amine] |

The next lines start with the compound.

| Structure (SMILES) | Ki |
| --- | --- |
| C=CCN(CC=C)Cc1c(C(F)(F)F)nc2n(-c3c(C)cc(C)cc3C)c3ncccc3n12 [Example 219, Diallyl-[2-trifluoromethyl-8-(2,4,6-trimethyl-phenyl)-8H-1,3a,7,8-tetraaza-cyclopenta[α]inden-3-ylmethyl]-amine] | < 1000 nM |
| CCCN(CCC(F)(F)F)Cc1c(C(F)(F)F)nc2n(-c3c(C)cc(C)cc3C)c3ncccc3n12 [Example 221, Propyl-[2-trifluoromethyl-8-(2,4,6-trimethyl-phenyl)-8H-1,3a,7,8-tetraaza-cyclopenta[α]inden-3-ylmethyl]-(3,3,3-trifluoro-propyl)-amine] | < 1000 nM |
| CCCN(Cc1c(C(F)(F)F)nc2n(-c3c(C)cc(C)cc3C)c3ncccc3n12)CC(F)(F)F [Example 222, Propyl-(2,2,2-trifluoro-ethyl)-[2-trifluoromethyl-8-(2,4,6-trimethyl-phenyl)-8H-1,3a,7,8-tetraaza-cyclopenta[α]inden-3-ylmethyl]-amine] | < 1000 nM |
| CCN(Cc1c(C(F)(F)F)nc2n(-c3c(C)cc(C)cc3C)c3ncccc3n12)CC1CC1 [Example 223, Cyclopropylmethyl-ethyl-[2-trifluoromethyl-8-(2,4,6-trimethyl-phenyl)-8H-1,3a,7,8-tetraaza-cyclopenta[α]inden-3-ylmethyl]-amine] | < 1000 nM |
| Cc1cc(C)c(-n2c3ncccc3n3c(CN(CCC4CC4)CCC(F)(F)F)c(C(F)(F)F)nc23)c(C)c1 [Example 225, (2-Cyclopropyl-ethyl)-[2-trifluoromethyl-8-(2,4,6-trimethyl-phenyl)-8H-1,3a,7,8-tetraaza-cyclopenta[α]inden-3-ylmethyl]-(3,3,3-trifluoro-propyl)-amine] | < 1000 nM |
| Cc1cc(C)c(-n2c3ncccc3n3c(CN(CCc4ccccc4)CCC(F)(F)F)c(C(F)(F)F)nc23)c(C)c1 [Example 226, Phenethyl-[2-trifluoromethyl-8-(2,4,6-trimethyl-phenyl)-8H-1,3a,7,8-tetraaza-cyclopenta[a]inden-3-ylmethyl]-(3,3,3-trifluoro-propyl)-amine] | < 1000 nM |
| Cc1cc(C)c(-n2c3ncccc3n3c(CN(CCC(F)(F)F)Cc4ccccc4)c(C(F)(F)F)nc23)c(C)c1 [Example 227, Benzyl-[2-trifluoromethyl-8-(2,4,6-trimethyl-phenyl)-8H-1,3a,7,8-tetraaza-cyclopenta[α]inden-3-ylmethyl]-(3,3,3-trifluoro-propyl)-amine] | < 1000 nM |
| Cc1cc(C)c(-n2c3ncccc3n3c(CN(C)Cc4ccccc4)c(C(F)(F)F)nc23)c(C)c1 [Example 228, Benzyl-methyl-[2-trifluoromethyl-8-(2,4,6-trimethyl-phenyl)-8H-1,3a,7,8-tetraaza-cyclopenta[α]inden-3-ylmethyl]-amine] | < 1000 nM |
| CCCN(CCC1CC1)Cc1c(C(F)(F)F)nc2n(-c3c(C)cc(C)cc3C)c3ncccc3n12 [Example 230, (2-Cyclopropyl-ethyl)-propyl-[2-trifluoromethyl-8-(2,4,6-trimethyl-phenyl)-8H-1,3a,7,8-tetraaza-cyclopenta[α]inden-3-ylmethyl]-amine] | < 1000 nM |
| Cc1cc(C)c(-n2c3ncccc3n3c(CN(CCC4CC4)CC(F)(F)F)c(C(F)(F)F)nc23)c(C)c1 [Example 232, (2-Cyclopropyl-ethyl)-(2,2,2-trifluoro-ethyl)-[2-trifluoromethyl-8-(2,4,6-trimethyl-phenyl)-8H-1,3a,7,8-tetraaza-cyclopenta[α]inden-3-ylmethyl]-amine] | < 1000 nM |
| CCCCN(Cc1ccccc1)Cc1c(C(F)(F)F)nc2n(-c3c(C)cc(C)cc3C)c3ncccc3n12 [Example 235, Benzyl-butyl-[2-trifluoromethyl-8-(2,4,6-trimethyl-phenyl)-8H-1,3a,7,8-tetraaza-cyclopenta[α]inden-3-ylmethyl]-a mine] | < 10000 nM |
| CCCN(Cc1ccccc1)Cc1c(C(F)(F)F)nc2n(-c3c(C)cc(C)cc3C)c3ncccc3n12 [Example 236, Benzyl-propyl-[2-trifluoromethyl-8-(2,4,6-trimethyl-phenyl)-8H-1,3a,7,8-tetraaza-cyclopenta[α]inden-3-ylmethyl]-amine] | < 10000 nM |
